The values below come from patent publication US20170196821A1, “Method of Inhibiting Mucin Secretion” (Reckitt Benckiser LLC, priority 2009, published 2017).

For one series, the system named is MUC5AC mucins. Kind of series: MUC5AC mucin secretion and production by ELISA in EpiAirway (NHBE) cultures at air/liquid interface. Type of series: cell-based, human. How it is done: EpiAirway cultures (normal human bronchial epithelial) cells grown on Millipore Transwells, 1 or 4.2 cm^2 surface area. The cells were purchased from MatTek, and were cultured at air-liquid interface for two (mucus synthesis and secretion) or three (mucociliary transport and mucus rheology) weeks prior to use. GUAIFENESIN solutions were prepared by dissolving in PBS (phosphate buffered saline) immediately before treatment of the cells. MUCSAC mucins were quantified by ELISA using 45M1 antibody (Labvision, Fremont, Calif.). Confluent 1 cm^2 NHBE cells grown on an air/liquid interface were washed from the apical surface with 200 μL PBS and incubated with fresh complete growth medium added to the basal chamber. Cultures were incubated 24 hours to collect the apical fluid (pretreatment sample or PT) by adding 100 μL PBS to the apical surface of the cultures. PBS was added to dilute the highly viscous, thin mucus layer on the surface. Because of the small size of the insert, it was not feasible to collect a sufficient amount of mucus for both pharmacology and rheology without the addition of PBS. After collecting 100 μL of the diluted mucus samples (PT), cultures were divided into three groups (6 hr, 24 hr and 48 hr), 16 inserts per group, and treated with varying concentrations of guaifenesin (0, 0.2, 2, 20 μg/mL) for each time group, 4 inserts per each dose. Thus, a total of 48 inserts were used for this study (4 inserts/dose×4 doses/time point×3 time points). The apical fluid was collected at 30 minutes following drug treatment from all the cultures to see whether guaifenesin affects the “secretion” of mucins. The apical mucus sample was collected in two steps—first by adding 100 μL PBS to the apical surface (1st wash) and then by adding 100 μL PBS containing 5 mM dithiothreitol (DTT) (2nd wash). Samples from each wash were assayed for MUC5AC content and the sum of the two values (the 1st and 2nd wash) was expressed as the “released MUC5AC” of the culture. At the three different time points (i.e., 6, 24, and 48 hr), cultures were washed to collect the apical fluid as described above (“released mucin”) and lysed using a lysis buffer (PBS, pH 7.2, […], 2 mM EDTA, 1 mM PSMF and 5 mM DTT) (“cellular mucin”). The amount of mucin in each sample (either secreted, released or cell lysate) was divided by the amount of mucin in the PT sample collected from the same well in order to obtain a “secretory index” to compensate for the variations among the cultures. The treatment protocol is depicted in FIG. 1. For mucin secretion, differences between control and guaifenesin treatment groups were assessed by comparing the means using Student's t-test for unpaired samples and p<0.05 was considered significant. All the values in the figures represent means ±SEM of 4 cultures unless otherwise stated. *p<0.05, **p<0.01

Series [1] concerns EpiAirway cultures (normal human bronchial epithelial) cells. Briefly: Mucociliary clearance: rate of movement of endogenous cell debris on EpiAirway cultures. The format is cell-based. The procedure: EpiAirway cultures (normal human bronchial epithelial) cells grown on Millipore Transwells, 1 or 4.2 cm^2 surface area. The cells were purchased from MatTek, and were cultured at air-liquid interface for two (mucus synthesis and secretion) or three (mucociliary transport and mucus rheology) weeks prior to use. For mucociliary clearance, a stock guaifenesin solution of 2 mg/mL in culture medium was prepared in the morning of each experiment and kept cold until dilution into warmed medium to the target concentrations of 0.2, 2, 20 or 200 μg/mL. The medium in the basolateral compartment of each culture was replaced with the GGE-containing medium, and the cultures were returned to the 37° C., 5% CO2 incubator for as the times indicated. The experiments were repeated three times on independent cultures. Cultures (4.2 cm^2) were exposed to basolateral guaifenesin for 1 or 6 hr. […] The rate of movement of endogenous cell debris was analyzed on the video images using a transparent template overlay on the video images and a stopwatch to measure at least 5 particles on each culture, for a total of between 30 and 45 measurements per condition. For mucociliary clearance, differences between control and guaifenesin treatment groups were assessed by comparing the means using ANOVA, with a Bonferroni post-test to assess differences from the controls tested at the same time after treatment. […]

Series [2] shares this test system. Briefly: Viability: metabolic activity by Water Soluble Tetrazolium (WST) assay. Type of series: cell-based. The conditions noted are these: 1 or 6 hr treatment. How it is done: EpiAirway cultures (normal human bronchial epithelial) cells grown on Millipore Transwells, 1 or 4.2 cm^2 surface area. The cells were purchased from MatTek, and were cultured at air-liquid interface for two (mucus synthesis and secretion) or three (mucociliary transport and mucus rheology) weeks prior to use.
The apical surfaces of the cultures were then washed with PBS and the metabolic activity, an indicator of viability, was measured using the Water Soluble Tetrazolium (WST) assay (Boehringer).
Metabolic activity was assessed using the WST assay, separately added to the apical or basal surfaces of the cultures.

The test system of a further series is apical mucus secretions. Kind of series: Rheologic measurements of apical mucus secretions from EpiAirway cultures. Type of series: cell-based, human. The procedure: EpiAirway cultures (normal human bronchial epithelial) cells grown on Millipore Transwells, 1 or 4.2 cm^2 surface area. The cells were purchased from MatTek, and were cultured at air-liquid interface for two (mucus synthesis and secretion) or three (mucociliary transport and mucus rheology) weeks prior to use. Following the analysis of clearance, mucus was harvested from the apical surface of the cultures, without dilution. The rheological properties of apical mucus secretions (20 μL) were measured using an AR1000 controlled stress rheometer (TA Instruments, New Castle, Del.) using a parallel plate geometry. The dynamic linear viscoelastic behavior was determined from the strain response to an oscillating stress and reported as a storage or elastic modulus (G′), and loss or viscous (G″) modulus, as a function of frequency ω such that viscosity, η′=G″/ω. Rheologic data can also be presented using vectorial notation as tangent δ which is the ratio of viscosity to elasticity and G*, the vector sum of viscosity and elasticity (mechanical impedance). When stress in the linear range is used to evaluate the materials, the material properties are independent of stress. In order to conduct a frequency sweep from 0.1 to 1000 rad/s, viscoelasticity was evaluated using a creep test at 0.5 Pa for 2 minutes. The strain response was fitted to a discrete relaxation spectrum, transformed to the retardation spectrum, and then to the storage and loss moduli, as a function of frequency, using methods developed by the PI. The linear viscoelasticity was evaluated at 1 and 100 rad/s and an oscillatory stress sweep and steady shear flow experiments were used to evaluate the behavior in the non-linear ranges. The oscillatory sweep data were analyzed by observing the stress where G′ and G″ crossed. […] All rheologic measurements were made by technicians who were blinded to the treatment group origin. For rheology experiments, data were analyzed using the StatView™ 5 statistics package. Raw data were visually confirmed to be normally distributed about the mean. […]

Where [3] appears, read: 24 hour treatment, 2 μg/mL or 20 μg/mL.

“Also recorded” adds a separate entry of the source.

As for `COc1ccccc1OCC(O)CO` (centres unmarked) [guaifenesin, 3-(2-methoxyphenoxy)-1,2-propanediol], the “secreted MUC5AC versus control” value in the series on MUC5AC mucins (30 min treatment, 0.2, 2, 20 μg/mL) is reported as “no significant difference”. The “total amounts of mucins produced” value in the series with MUC5AC mucins (6 hour treatment, 2 μg/ml and 20 μg/ml) was “significantly (p<0.01) suppressed; also recorded: suppressed the production of mucins”. Also, in the series on MUC5AC mucins (6 hours treatment, NHBE cells), the “amounts of mucins released” value is “did not affect”. The mucin production result in the series with MUC5AC mucins (setting [3]) was “significantly suppressed; also recorded: suppressed the production of mucins”. The mucin release entry in the series with MUC5AC mucins (setting [3]) is “significantly suppressed; also recorded: significant (p<0.05) decrease in mucin release”. The “amount of mucin released” value with MUC5AC mucins (48 hours treatment) is reported as “did not seem to be significantly affected”. Besides, the production of mucins result in the series with MUC5AC mucins (48 hours treatment, 2 μg/mL and 20 μg/mL) is recorded as “significantly (p<0.01) suppressed; also recorded: suppressed the production of mucins”. Also, in series [1] (1 hr treatment, only 2 μg/ml statistically significant, little dose-response), the “mucociliary clearance (mobility of cellular debris on culture surface)” value is listed as “appeared to increase the mobility of the cellular debris”. For the same compound, the “mucociliary clearance (movement of surface material)” value in series [1] (6 hr treatment, all three concentrations tested, strong trend to a dose response) is “significantly faster than the control”. Further, in series [2], the “viability of the cells (WST assay)” value is recorded as “no adverse effect on the viability”. Besides, the “metabolic activity (WST assay)” value in series [2] (did not reach statistical significance) is recorded as “trend to increased metabolic activity”. Further, the “viscosity, elasticity and complex modulus (G*) of mucus” value in the series with apical mucus secretions (1 rad/s (ciliary frequency), 1 hour, p<0.05) was “dose-dependent decrease”; with apical mucus secretions (1 rad/s (ciliary frequency), 6 hours, p<0.01), “dose-dependent decrease”; in the series on apical mucus secretions (100 rad/s (corresponding to cough)) it was “not significantly”.
